Measurements taken from patent publication US10172883B2, “Methods and compositions for treating and/or inhibiting toxins using copper-containing compounds” (ALATALAB SOLUTIONS, LLC, priority 2014, dated 2019).

Experiments:
[1] = test system: fire ant venom (Solenopsis invicta) induced hemolysis of human red blood cells (RBCs); format: cell-based
[2] = test system: box jellyfish venom (Alatina alata) induced hemolysis of human RBCs; test: Inhibition of box jellyfish venom induced hemolysis of human RBCs; format: cell-based; details: for concentration at which active for box jellyfish venom inhibition: 5 units/mL/% RBC box jellyfish venom, 1 hour, 37° C., active at this concentration or greater
[3] = test system: cnidarian sting blistering inflammation; test: Live jelly sting test, blistering inflammation; format: in vivo
[4] = test system: hemolytic toxins; details: 10 mM d-lactulose; cited from earlier work
[5] = test system: fire ant venom-induced hemolysis of RBCs; test: Live time microscopic imaging of fire ant venom-induced hemolysis of RBCs; format: cell-based, human; details: 10 ng/μL fire ant venom, 1 μM copper gluconate, single dose
[6] = test system: live Alatina alata tentacles on human RBC agar; test: RBC agar slide hemolysis by live Alatina alata tentacles; format: cell-based; details: 10 μM in agar slide, 2% fresh human RBC, 37° C., one hour
Protocol: 2-20 mm sections of fresh live Alatina alata tentacles were placed on top of freshly prepared RBC agar slide (3% NuSieve GTG low melting agarose, 150 mM NaCl with 2% fresh human RBC). Slides were incubated at 37° C. for one hour. Zones of hemolysis are observed in control slide (FIG. 5, left) but not in slides prepared with 10 μM Copper Gluconate (3% NuSieve GTG low melting agarose, 150 mM NaCl, 10 μM Copper Gluconate with 2% fresh human RBC) (FIG. 5, right). A zone of hemolysis indicates lysis of the red blood cells.

## zinc gluconate
[1]
  concentration at which active for fire ant venom inhibition: approximately 25 mM
  effect on hemolysis at early time points: potently stimulated hemolysis
[2]
  concentration at which active for box jellyfish venom inhibition: approximately 300 μM

## O=C(Nc1ccc(Cl)cc1)Nc1ccc(Cl)c(Cl)c1 [TCC, triclocarban]
[3]; 1% TCC in vanacreme, topical, untreated test lasted up to 72 hr
  resolution of blistering inflammation: fully resolving the blistering inflammation
[3]; after application of a live jelly in a sting test
  time to resolve blistering inflammation: ≤ 90 min

## OC[C@H]1O[C@@H](O[C@@H]2[C@@H](CO)O[C@](O)(CO)[C@H]2O)[C@H](O)[C@@H](O)[C@H]1O [d-lactulose]
[4]
  hemolysis: dramatic absence of hemolysis

## copper gluconate
[1]
  concentration at which active for fire ant venom inhibition: approximately 3 μM
  efficacy relative to zinc gluconate in the inhibition of ant venom: approximately 10,000 times
[5]
  slowing of hemolysis: 6 fold
[6]
  zones of hemolysis observed: not
[2]
  potency relative to zinc gluconate alone in inhibiting box jellyfish venom: approximately 10 times
  concentration at which active for box jellyfish venom inhibition: approximately 30 μM
